# According to PubChem BioAssay (NCI):
# Where “and” joins values, the source holds several entries; their conditions need not be identical. Equal entries are not always repeated.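 Values below derive from 48-hour exposures of cells grown in 96-well plates, with endpoints linearly interpolated between the two concentrations bracketing the appropriate inhibition level. GI50: concentration for 50% inhibition of growth. TGI marks complete inhibition of growth.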
# System: MDA-MB-468 breast
# Assay: inhibition of tumour cell growth, NCI panel, 48 h
Structure (SMILES),GI50,TGI
COc1cccc2cc(N(C)c3nc(C)nc4ccsc34)ccc12,< 0.01 µM,
CC(C)(C)n1cc(-c2ccnc(NCCCNS(=O)(=O)c3ccc(Cl)cc3)c2)c(-c2cccc(O)c2)n1,1.8 µM,4.16 µM
ClC1=C(Cl)C(Cl)=C(Cl)C1=Cc1ccc(Cl)cc1Cl,0.257 µM,0.728 µM
Cc1[nH]ccc2cc3nc4ccccc4c3cc12,1.91 µM,9.09 µM
CCCCCCCCCCC(CN(CC)CC)C(O)c1ccccc1 (stereo unspecified),1.52 µM,3.21 µM
O=C1C(Cl)=C(Nc2ccc3c(c2NC2=C(Cl)C(=O)c4ccccc4C2=O)C(=O)c2ccccc2C3=O)C(=O)c2ccccc21,1.35 µM,3.85 µM
c1ccc([P+](CCC[P+](c2ccccc2)(c2ccccc2)c2ccccc2)(c2ccccc2)c2ccccc2)cc1,1.72 µM,26.3 µM
O=C(NNc1nc2cc(F)cc(F)c2n2cccc12)c1cccnn1,0.638 µM and 0.219 µM,2.43 µM and 1.47 µM
Cc1ccc2oc(=O)cc(C3c4ccc([nH]4)C(c4cc(=O)oc5ccc(C)cc45)c4ccc([nH]4)C(c4cc(=O)oc5ccc(C)cc45)c4ccc([nH]4)C(c4cc(=O)oc5ccc(C)cc45)c4ccc3[nH]4)c2c1 (stereo unspecified),0.0344 µM,1.86 µM
COc1ccc(-c2cc3nccn3c(Nc3ncccc3C(N)=O)n2)cc1OC,> 100 µM,> 100 µM
CN(C)S(=O)(=O)c1cccc(-c2nc3sc4c(c3c(=O)[nH]2)CCCC4)c1,8.92 µM,> 100 µM
C#CCOc1cccc(Nc2ncnc3c2ncn3C2CCN(C(=O)CCl)C2)c1 (stereo unspecified),19.8 µM,41 µM
COc1ccc(Cn2cc3c(c2-c2ccccc2)CCc2cncnc2-3)cc1,3.25 µM,11 µM
Cc1cc(Cl)ccc1Nc1nc(C(F)(F)F)ccc1C(=O)N/N=C/c1ccc(N(C)C)cc1,0.442 µM,4.67 µM
CN(C)CCN1C(=O)c2cccc3c(-c4ccc5ncn(C6CCCCC6)c5c4)ccc(c23)C1=O,1.74 µM,4.33 µM
CO[C@@]12[C@H](COC(N)=O)C3=C(C(=O)C(C)=C(N)C3=O)N1C[C@@H]1N[C@@H]12,0.241 µM and 1.01 µM,1.3 µM and 4.9 µM
O=c1[nH]cc(F)c(=O)[nH]1,,> 100 µM and 1560 µM
CC1(C)CC(O)CCCCCCOc2c(CN)cccc2NC(=O)c2nc(cnc2N)-c2ccc(cc2)S1(=O)=O (stereo unspecified),0.49 µM,2.45 µM
COc1cc(C(=O)/C=C/c2c(-c3cccs3)nc3ccccn23)cc(OC)c1OC,1.72 µM,3.4 µM
O=C(Nc1ccc([N+](=O)[O-])cc1)c1cc2ccccc2cc1O,0.898 µM,4.74 µM

Structure (SMILES),GI50,TGI
O=C(Nc1cccc(Cl)c1)Nc1nc2ccc([N+](=O)[O-])cc2o1,2.26 µM,5.73 µM
c1cc(-c2cnn3nc(N4CCOCC4)ccc23)nc(NC2CC2)n1,6.8 µM,21 µM
Cc1ccc(C(=O)Nc2ccccc2C(=O)N/N=C(\c2ccccc2)c2ccccn2)cc1,0.266 µM,2.94 µM
CCCCc1oc2ccccc2c1C(=O)c1cc(I)c(OCCN(CC)CC)c(I)c1,1.49 µM,3.12 µM
CN1CCN(c2ccc([N+](=O)[O-])c3no[n+]([O-])c23)CC1,0.203 µM,0.821 µM
C=C1C(=O)O[C@H]2[C@H]1CC/C(COC(=O)NCc1cccc(OC)c1)=C\CC[C@@]1(C)O[C@@H]21,1.29 µM,3.84 µM
Cc1sc2c(c1C)C(c1ccc(Cl)cc1)=N[C@@H](CC(=O)Nc1ccc(O)cc1)c1nnc(C)n1-2,0.212 µM,17.8 µM
COc1cc(/C=N/O)nc(-c2ccccn2)c1,0.307 µM,1.7 µM
CCN1CCN(c2nc(C)cc(N(CCCNc3ccnc4cc(Cl)ccc34)Cc3ccco3)n2)CC1,2.2 µM,5.28 µM
C[C@@H]1CCC2[C@@H](C)[C@H](OC(=O)CCC(=O)NCCNC(=O)Cc3cc(=O)oc4cc(N(C)C)ccc34)O[C@@H]3O[C@]4(C)CC[C@@H]1C23OO4 (stereo partly specified),13.4 µM,59.4 µM
C=C(C=O)[C@@H]1CC[C@]2(C(=O)O)CC[C@]3(C)C(CC[C@@H]4[C@@](C)(CCC#N)[C@H](C(=C)C=O)CC[C@]43C)[C@@H]12 (stereo partly specified),2.31 µM,5.69 µM
CC(=O)O[C@@H]1C(=O)N(c2cnccn2)[C@H]1c1ccccc1[N+](=O)[O-],0.376 µM,4.05 µM
Clc1ccc2c(NCCN3CCN(c4ccnc(N5CCCC5)n4)CC3)ccnc2c1,2.05 µM,5.09 µM
O=C(Nn1c2c(sc1=NC1CC1)C(=O)c1ccccc1C2=O)c1cc2ccc1CCc1ccc(cc1)CC2,2.55 µM,7.32 µM
CCOC(=O)c1cn2ncnc(Oc3ccc(NC(=O)NCCN(CC)CC)c(Cl)c3)c2c1C,9.57 µM,29 µM
CO[C@H]1/C=C/C[C@H](C)[C@@H](C)S(=O)(=O)NC(=O)c2ccc3c(c2)N(C[C@@H]2CC[C@H]21)C[C@@]1(CCCc2cc(Cl)ccc21)CO3,0.166 µM,0.55 µM
COc1cc(C2c3cc4c(cc3OC(N3CCOCC3)C2C)OCO4)cc(OC)c1OC (stereo unspecified),4.15 µM,> 100 µM
O=C1/C(=C/c2ccc(C(F)(F)F)cc2)COc2ccc(O)cc21,1.53 µM,3.04 µM
COc1cc2c(cc1-c1c(C)noc1C)ncc1[nH]c(=O)n([C@H](C)c3ccccn3)c12,0.445 µM,> 36.8 µM
